US9062057B2, “CCR5 antagonists for treating HIV” (Purdue Research Foundation, priority 2010, dated 2015)

Biological target: CCR5 chemokine receptor (Homo sapiens, UniProt P51681)
Assay: Inhibition Data (IC50; no method described)
Details: assay not described, read-out: Activity (*) (IC50 class)

Sequence of CCR5 chemokine receptor (P51681 whole entry): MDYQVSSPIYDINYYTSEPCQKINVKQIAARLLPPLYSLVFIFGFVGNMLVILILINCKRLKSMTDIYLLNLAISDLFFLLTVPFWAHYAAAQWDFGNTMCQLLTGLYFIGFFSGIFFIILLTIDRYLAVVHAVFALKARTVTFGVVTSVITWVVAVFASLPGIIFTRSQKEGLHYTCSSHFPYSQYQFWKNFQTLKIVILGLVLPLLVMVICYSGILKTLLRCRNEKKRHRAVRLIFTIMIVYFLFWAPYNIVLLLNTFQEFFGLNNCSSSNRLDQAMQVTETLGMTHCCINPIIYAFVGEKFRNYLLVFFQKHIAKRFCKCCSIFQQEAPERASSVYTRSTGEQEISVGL

IC50 [µM]	SMILES
< 0.001	CN(C[C@@](C)(CCN1CC[C@@H]2[C@@H](CCN2C(=O)OC(C)(C)C)C1)c1ccccc1)S(=O)(=O)c1ccccc1 [Example 1]
< 1	CN(C[C@@](C)(CCN1CC[C@H]2[C@H](CCN2C(=O)OC(C)(C)C)C1)c1ccccc1)S(=O)(=O)c1ccccc1 [Example 2]
< 1	CN(C[C@@](C)(CCN1CC[C@H]2[C@H](CCN2C(=O)OC(C)(C)C)C1)c1ccccc1)S(=O)(=O)c1ccc(CNC(=O)O[C@H]2CCOC2)cc1 [Example 3]
< 0.001	CN(C[C@@](C)(CCN1CC[C@@H]2[C@@H](CCN2C(=O)OC(C)(C)C)C1)c1ccccc1)S(=O)(=O)c1ccc(CNC(=O)O[C@H]2CCOC2)cc1 [Example 4]
< 0.1	CN(C[C@@](C)(CCN1C2CCC1CC(NC(=O)OCc1ccccc1)C2)c1ccccc1)S(=O)(=O)c1ccccc1 (stereo partly shown) [Example 5]
< 0.1	CN(C[C@@](C)(CCN1C2CCC1CC(NC(=O)OCc1ccccc1)C2)c1ccccc1)S(=O)(=O)c1ccccc1 (stereo partly shown) [Example 6]
< 0.1	CN(C[C@@](C)(CCN1CC[C@H]2CN(C(=O)OCc3ccccc3)C[C@H]2C1)c1ccccc1)S(=O)(=O)c1ccccc1 [Example 7]
< 1	CN(C[C@@](C)(CCN1CC[C@H]2CNC[C@H]2C1)c1ccccc1)S(=O)(=O)c1ccccc1 [Example 8]
< 0.1	CN(C[C@@](C)(CCN1CC[C@H]2CN(C(=O)OC(C)(C)C)C[C@H]2C1)c1ccccc1)S(=O)(=O)c1ccccc1 [Example 9]
< 0.1	CN(C[C@@](C)(CCN1C[C@H]2CCN(C(=O)OC(C)(C)C)C[C@H]2C1)c1ccccc1)S(=O)(=O)c1ccccc1 [Example 10]
< 0.1	CN(C[C@@](C)(CCN1CC[C@H]2CN(C(=O)OCc3ccccc3)C[C@H]2C1)c1ccccc1)S(=O)(=O)c1ccccc1 [Example 11]
< 0.1	C[C@@H](NC(=O)N1CC2CCN(CC[C@](C)(CN(C)S(=O)(=O)c3ccccc3)c3ccccc3)C[C@@H]2C1)c1ccccc1 (stereo partly shown) [Example 12]
< 0.1	C[C@@H](NC(=O)N1CC2CCN(CC[C@](C)(CN(C)S(=O)(=O)c3ccccc3)c3ccccc3)C[C@@H]2C1)c1ccccc1 (stereo partly shown) [Example 13]
< 1	C[C@H](NC(=O)N1C[C@H]2CN(CC[C@](C)(CN(C)S(=O)(=O)c3ccccc3)c3ccccc3)CC[C@H]2C1)c1ccccc1 [Example 14]
< 0.1	C[C@H](c1ccccc1)N(C)C(=O)N1C[C@H]2CN(CC[C@](C)(CN(C)S(=O)(=O)c3ccccc3)c3ccccc3)CC[C@H]2C1 [Example 15]
< 0.01	Cc1nnc(C(C)C)n1C1CC2CCC(C1)N2CC[C@](C)(CN(C)S(=O)(=O)c1ccccc1)c1ccccc1 (stereo partly shown) [Example 16]
< 1	C[C@H](NC(=O)N1CC2CN(CC[C@](C)(CN(C)S(=O)(=O)c3ccccc3)c3ccccc3)CC[C@H]2C1)c1cccc2ccccc12 (stereo partly shown) [Example 17]
< 1	Cc1ccc(S(=O)(=O)N2C[C@H]3CN(CC[C@](C)(CN(C)S(=O)(=O)c4ccccc4)c4ccccc4)CC[C@H]3C2)cc1 [Example 18]
< 1	Cc1nc(COC(=O)N2C[C@H]3CN(CC[C@](C)(CN(C)S(=O)(=O)c4ccccc4)c4ccccc4)CC[C@H]3C2)c(C)o1 [Example 19]
< 0.1	CC(C)COC(=O)NC1CC2CCC(C1)N2CC[C@](C)(CN(C)S(=O)(=O)c1ccccc1)c1ccccc1 (stereo partly shown) [Example 20]
< 0.1	CN(C[C@@](C)(CCN1C2CCC1CC(NC(=O)O[C@H]1CCOC1)C2)c1ccccc1)S(=O)(=O)c1ccccc1 (stereo partly shown) [Example 21]
< 1	CN(C[C@@](C)(CCN1CC2CCN(C(=O)OC(C)(C)C)C2C1)c1ccccc1)S(=O)(=O)c1ccccc1 (stereo partly shown) [Example 22]
< 0.01	CN(CC(C)(CCN1CCC2C(CCN2C(=O)OC(C)(C)C)C1)c1ccccc1)S(=O)(=O)c1ccccc1 (stereo not shown) [Example 25]

IC50 [µM]	SMILES
< 1	CC(C)(C)OC(=O)N1CCC2CN(C(=O)[C@H](Cc3ccccc3)NC(=O)OCc3ccccc3)CCC21 (stereo partly shown) [Example 26]
< 1	CC(C)(C)OC(=O)N1CCC2CN(C(=O)[C@@H](N)Cc3ccccc3)CCC21 (stereo partly shown) [Example 27]
< 0.1	CN(CC(C)(CCN1CCC2C(CCN2C(=O)OC2CO[C@H]3OCCC23)C1)c1ccccc1)S(=O)(=O)c1ccccc1 (stereo partly shown) [Example 28]
< 1	CN(CC(C)(CCN1CCC2C(CCN2C(=O)OC2CCOC2)C1)c1ccccc1)S(=O)(=O)c1ccccc1 (stereo not shown) [Example 29]
< 1	CO[C@@](CCN1CCC2C(CCN2C(=O)OC(C)(C)C)C1)(CN(C)S(=O)(=O)c1ccccc1)c1ccccc1 (stereo partly shown) [Example 30]
< 1	CO[C@](CCN1CCC2C(CCN2C(=O)OC(C)(C)C)C1)(CN(C)S(=O)(=O)c1ccccc1)c1ccccc1 (stereo partly shown) [Example 31]
< 0.1	CN(CC(C)(CCN1CCC2C(CCN2C(=O)OC(C)(C)C)C1)c1ccccc1)S(=O)(=O)c1ccccc1 (stereo not shown) [Example 32]
< 1	CN(CC(C)(CCN1CCC2C(CCN2C(=O)OC(C)(C)C)C1)c1ccccc1)S(=O)(=O)c1ccc(C(=O)OCc2ccccc2)cc1 (stereo not shown) [Example 33]
< 0.1	CN(CC(C)(CCN1CCC2C(CCN2C(=O)OC(C)(C)C)C1)c1ccccc1)S(=O)(=O)c1ccc(C(=O)O)cc1 (stereo not shown) [Example 34]
< 0.1	CC(=O)OC(OC(C)=O)c1ccc(S(=O)(=O)N(C)CC(C)(CCN2CCC3C(CCN3C(=O)OC(C)(C)C)C2)c2ccccc2)cc1 (stereo not shown) [Example 35]
< 0.1	COC(OC)c1ccc(S(=O)(=O)N(C)CC(C)(CCN2CCC3C(CCN3C(=O)OC(C)(C)C)C2)c2ccccc2)cc1 (stereo not shown) [Example 36]
< 1	CN(CC(C)(CCN1CCC2C(CCN2C(=O)OC(C)(C)C)C1)c1ccccc1)S(=O)(=O)c1ccc(CNC(=O)OCc2ccccc2)cc1 (stereo not shown) [Example 37]
< 0.1	CC(=O)NCc1ccc(S(=O)(=O)N(C)CC(C)(CCN2CCC3C(CCN3C(=O)OC(C)(C)C)C2)c2ccccc2)cc1 (stereo not shown) [Example 38]
< 1	CN(CC(C)(CCN1CCC2C(CCN2C(=O)OC(C)(C)C)C1)c1ccccc1)S(=O)(=O)c1ccc(CNC(=O)OC(C)(C)C)cc1 (stereo not shown) [Example 39]
< 0.1	CN(CC(C)(CCN1CCC2C(CCN2C(=O)OC(C)(C)C)C1)c1ccccc1)S(=O)(=O)c1ccc(CNC(=O)O[C@H]2CCOC2)cc1 (stereo partly shown) [Example 40]
< 1	CN(CC(C)(CCN1CCC2C(CCN2C(=O)OC(C)(C)C)C1)c1ccccc1)S(=O)(=O)c1ccc(CN)cc1 (stereo not shown) [Example 41]
< 0.1	CN(C[C@@](C)(CCN1CCC2C(CCN2C(=O)OC(C)(C)C)C1)c1ccccc1)S(=O)(=O)c1ccccc1 (stereo partly shown) [Example 43]
< 0.01	CN(C[C@@](C)(CCN1CC[C@@H]2[C@@H](CCN2C(=O)OC(C)(C)C)C1)c1ccccc1)S(=O)(=O)c1ccccc1 [Example 44]
< 1	CN(C[C@@](C)(CCN1CC[C@@H]2[C@@H](CCN2C(=O)OC(C)(C)C)C1)c1ccccc1)S(=O)(=O)c1ccccc1 [Example 46]
< 1	CC1CN(CC[C@](C)(CN(C)S(=O)(=O)c2ccccc2)c2ccccc2)CCC12C=Cc1ccccc12 (stereo partly shown) [Example 48]
< 0.1	COc1ccc(C(C)(CCN2CCC3C(CCN3C(=O)OC(C)(C)C)C2)CN(C)S(=O)(=O)c2ccccc2)cc1 (stereo not shown) [Example 49]
< 1	COc1cccc(C(C)(CCN2CCC3C(CCN3C(=O)OC(C)(C)C)C2)CN(C)S(=O)(=O)c2ccccc2)c1 (stereo not shown) [Example 50]
< 1	CN1N=C2CCN(CC[C@](C)(CN(C)S(=O)(=O)c3ccccc3)c3ccccc3)CC2(C)C1=O (stereo partly shown) [Example 51]
